melting point [°C]	SMILES
102 to 110	CCN(CC)CCCOc1ccc(C(=O)c2c(-c3ccc(OC)cc3)oc3ccccc23)cc1
138 to 139	COc1ccc(OCc2ccc3ccccc3n2)cc1C1(c2ccccc2)CC2CCC1C2 (stereo unspecified)
112 to 115	COc1ccc2cc(C(C)COS(N)(=O)=O)ccc2c1 (stereo unspecified)
188 to 190	CSc1nncn1-c1ccc(N2C[C@H](CNC(C)=O)OC2=O)cc1F
175 to 178	CN(c1c(Cl)cc(Cl)cc1Cl)n1cc(C#N)c(=O)n(C)c1=O
155 to 156	CC(=O)OC1CCC2(C)C(=CCC3C2CCC2(C)C(n4ncnn4)=CCC32)C1 (stereo unspecified)
174 to 176	CSc1nc(N)c2ncn(COCCO)c2n1
192 to 194	CNC(=O)C(NC(=O)c1cn(C)nc1C(F)(F)F)C(/C=C/c1ccccc1)c1ccccc1 (stereo unspecified)
71 to 73	CCOC(=O)COc1cc(C)c(C)c2c1CC(Br)C2=O (stereo unspecified)
121 to 123	CCOC(=O)Cc1c(C)n(-c2ncnc3ccccc23)c2ccc(OC)cc12
176 to 178	S=C(NC1CCCCC1)N1CCN(c2cnccn2)CC1
202 to 204	COc1cc(OCCCN2CCC(c3n[nH]c4cc(F)ccc34)CC2)ccc1C(C)=O
93 to 94	CON1CCC2(CC1)C(=O)C(Cl)(c1cc(C)c(C)cc1Cl)C(=O)N2C (stereo unspecified)
114 to 118	COC(=O)c1nc(-c2ccc(Cl)c(OC)c2F)cc(N)c1OC
111	O=C(CBr)c1ccc(S(=O)(=O)Cl)cc1
172 to 173	Cc1c(Cc2cccc(C(F)(F)F)c2)sc2c(-c3cccc(C(=O)O)c3)cccc12
279	COc1ccc(C2C(C(=O)c3ccc(OC(F)(F)F)cc3)=C(O)C(=O)N2c2ccc(C)nn2)cc1 (stereo unspecified)
170	O=C(c1ccccc1)n1c(=O)[nH]cc(F)c1=O
134 to 135	Cc1oc(-c2ccccc2)nc1COc1ccc(OCc2ncccc2CC#N)cc1
176 to 178	CN(C)c1cc(-c2ccnc(Nc3cccc(Cl)c3)n2)ccn1
212 to 214	CNCC[C@H]1CC[C@H](C(=O)O)CC1
208 to 211	OCC1CC(n2c(Br)nc3cc(Cl)c(Cl)cc32)C(O)C1O (stereo unspecified)

melting point [°C]	SMILES
105	CCC(Br)C(=O)c1ccc(OC)c(OC(F)F)c1 (stereo unspecified)
37 to 39	CCOC(=O)c1c(C(F)F)nn(C)c1Cl
85	COC1=C(OC)C(=O)C(CCCCCCCCCCCCCCCCCCCCO)=C(C)C1=O
233 to 234	N#Cc1c(Oc2ccc(Oc3ccc(N)cc3)cc2)cccc1Oc1ccc(Oc2ccc(N)cc2)cc1
216 to 219	CC(C)[C@H](NC(=O)OCc1ccccc1)C(=O)N[C@@H](Cc1ccccc1)[C@@H](O)[C@@H](O)[C@H](Cc1ccccc1)NC(=O)[C@@H](NC(=O)N1CCN(C)CC1)C(C)C
67 to 68	CCOC(=O)CC(=O)c1cc(OC)c(OC)c([N+](=O)[O-])c1
225 to 227	COc1ccc(-c2nc(C)[nH]c3cc(-c4ccccc4)nc2-3)cc1
88 to 89	CCOC(=O)CCc1cn(Cc2cccnc2OCc2csc(-c3ccccc3)n2)nc1-c1ccccc1
72 to 75	COc1ccc(C2CC(O)(c3ccc(OC4CCCCO4)cc3)C2)cc1 (stereo unspecified)
189 to 192	CCN(CC)c1cc2c(cc1C)Nc1c(cc(NC(=O)c3ccc(OC)cc3)c3ncn(-c4ccc(OC)cc4)c13)O2
191 to 192	COc1ccc(Cl)c(S(=O)(=O)NC(=O)c2cn3cc(C(F)(F)F)cc(Br)c3n2)c1
171 to 173	c1ccc2c(c1)CC(CN1CCN(c3ccc4c(c3)OCC4)CC1)C2
92 to 94	C[C@@H](Cc1ccc(O)cc1)NS(=O)(=O)c1ccccc1
> 270	CCOc1cc(NC(=O)NS(=O)(=O)c2ccc(C)cc2)cc(OCC)n1
84 to 85	Cc1ncoc1C(C)(O)c1cccs1 (stereo unspecified)
133 to 134	O=S(=O)(c1ccc(Cl)cc1)C1(c2nnn(Cc3ccccc3)n2)CCCCC1
117 to 118	COC(=O)Cc1ccc(C(=O)c2ccc(C)cc2)n1C
> 250	N#Cc1c(Cl)sc2[nH]c(=O)c(=O)[nH]c12
55 to 57	c1cc2c(s1)CCCCN2
238	COc1ccc(-n2ncc(C(=O)Nc3ccc(N4CCC(N5CCOCC5)CC4)c(C#N)c3)c2C)cc1
122 to 123	COc1ccc2c(c1)OCC21C(=O)N(Cc2ccccn2)c2ccccc21 (stereo unspecified)
179 to 183	O=C(CBr)OCN1C(=O)NC(c2ccccc2)(c2ccccc2)C1=O

melting point [°C]	SMILES
216 to 218	CN(Cc1cccc2c1CN(C1CCC(=O)NC1=O)C2=O)C(=O)NC(C)(C)C (stereo unspecified)
139 to 141	CCC(=O)N[C@@H]1CN(C(=O)c2nn(C)c3ccccc23)C[C@@H]1C (relative stereo)
196 to 198	CCCC(=O)Nc1ccc2c(c1)CCC(CN1CCC(O)(c3ccccc3)CC1)C2=O (stereo unspecified)
109 to 110	CCCCC(=O)N(CCOCc1ccccc1)Cc1ccc(-c2ccccc2-c2nnn[nH]2)cc1
184 to 186	O=c1c2cc(F)c(N3CCCC3)nc2n(C2CC2)c(=O)n1OCc1ccccc1
85 to 85.8	CC(=O)NC(C)COc1c(C)cccc1C (stereo unspecified)
54 to 56	CCNc1nc(S(C)=O)ncc1C(=O)OCC (stereo unspecified)
200 to 201	CC(C)n1nc(-c2c(-c3ccccc3)nn3ccc(C(=O)NC(C)(C)C)cc23)ccc1=O
194 to 195	CSc1nc(=O)n(Cc2ccccc2)c2ncn(COCc3ccccc3)c12
93 to 94	c1ccc(OCCSCc2nnc(-c3ccc4cc(CN5CCCCC5)ccc4c3)o2)cc1
> 300	Cc1ccc(-c2c(NS(=O)(=O)c3ccc(C(C)(C)C)cc3)nc(-c3cccs3)nc2OCCO)cc1
199 to 201	O=C(Nc1ccc(C(=O)N2Cc3ccccc3Cc3cc(Cl)ccc32)cc1)c1ccc(Cl)cc1Cl
64 to 65	COC(=O)c1cc(OCc2ccc3ccccc3n2)nn1C(C)C
172	CCCCc1c(C(=O)c2ccc(O)cc2)n(C)c2ccc([N+](=O)[O-])cc12
240	O=C(O)C[C@H]1CC[C@H](Cn2nc(-c3cccs3)c(Cc3cc4c(cc3Cl)OCO4)c2C(=O)O)CC1
120 to 121	CCN(CC)CCCNC(=S)N(CCS(=O)(=O)c1ccccc1)C(C)C
161 to 162	CCN(CC)CC(=O)N1c2ccccc2N(C)S(=O)(=O)c2ccccc21
170 to 171	CC1COP(=O)(Cc2ccc([N+](=O)[O-])cc2)OC1 (stereo unspecified)
235 to 239	C[C@@H](Nc1c(NCc2ccc(Cl)cc2Cl)c(=O)c1=O)C(C)(C)C
161 to 162	Cc1nc(NC(=O)NS(=O)(=O)C(Cl)C(C)Cl)nc(C)c1Cl (stereo unspecified)
188 to 191	COc1ccc(-c2cnc(S)nc2-c2ccc(OC)cc2)cc1
136 to 137	CCOC(=O)Cc1ccc(-c2nc(COc3ccc(COc4nn(-c5ccccc5)cc4/C=C\c4csc(CC)n4)cc3OC)c(C)o2)cc1

melting point [°C]	SMILES
171 to 172	COc1ccc(CCNC(=O)C(N)=O)cc1OC
90 to 92	FC(F)Sc1nnc(-c2ccccn2)s1
218 to 220	N#CC(N)=C(C#N)N=Cc1nn(-c2c(Cl)cc(C(F)(F)F)cc2Cl)nc1C(F)(F)F
101	CCOCc1nc2c(N)nc3ccccc3c2n1CCCCS(=O)(=O)NCc1ccc(OC)cc1
167 to 169	N#Cc1ncn2c1N(C(=O)CN1CCN(Cc3ccccc3)CC1)CC=C2c1cccc(C(F)(F)F)c1
224 to 225	O=CC1C(=O)NC(=O)N1CCCCCCC(=O)O (stereo unspecified)
126 to 127	BrCc1ccc2nc(-c3ccccc3)ccc2c1
148 to 150	CCCc1nc2c(N)nc(C)c(C)c2n1CCCC(C)=O
172 to 174	Cc1c(C(=O)Nc2ccc(OCCCN3CCOCC3)c(C#N)c2)cnn1-c1ccc(C(F)(F)F)cc1
171 to 173	COc1cc(C(=O)O)ccc1Cc1c(Cl)n(C)c2ccc(CC(C)NC(=O)N(C)C)cc12 (stereo unspecified)
126 to 127	CCCCNc1cc(-c2ccccc2)nc2onc(C)c12
229 to 231	CCCc1c2oc(C(N)=O)cc(=O)c2cc2c(=O)cc(C(=O)OCC)oc12
146 to 148	COC(=O)C1=C(C)NC(C)=C(C(=O)OCCCCCCOc2cc(-c3ccc(OC)cc3)[nH]n2)C1c1cccc(Cl)c1Cl (stereo unspecified)
189	Cc1c2c(nc3ccccc13)CCN(S(=O)(=O)c1ccc(Cl)cc1)CC2
148 to 150	COc1ccc(O)c(C2(CCCCSC)Sc3ccccc3N(C)C2=O)c1 (stereo unspecified)
175 to 176	CS(=O)c1ccc(-n2cnnn2)cc1 (stereo unspecified)
115 to 117	COc1cc(F)cc(-c2nn(Cc3oc4ccccc4c(=O)c3-c3cccc(F)c3)c3ncnc(N)c23)c1
175 to 178	OCC1OC(n2cnc3c(N4CCOCC4)ncnc32)CC1F (stereo unspecified)
106 to 107	CCCCOC(=O)[C@H](Cc1ccc(O)cc1)NC(=O)C1(NC(=O)C2(S)CCCC2)CCCC1
181 to 182	COc1ccc(-c2c(Cl)ncnc2NS(=O)(=O)c2ccc(C(C)C)cc2)cc1
160 to 163	COC(=O)C1=C(C)NC(C)=C(C(=O)OCC2CC2)C1c1cccc([N+](=O)[O-])c1 (stereo unspecified)
179 to 180	Cn1cnc(S(=O)(=O)N2CCS(=O)(=O)CC2)c1

SMILES	melting point [°C]
O=C(NC1C(=O)N(CC23CC4CC(CC(C4)C2)C3)c2ccc(F)cc2N(c2ccccc2)C1=O)Oc1ccccc1 (stereo unspecified)	156 to 159
CC(C)(C)c1nn(-c2cc(F)c(C#N)cc2F)c(=O)o1	137
O=C(Cc1ccc(Cl)c(Cl)c1)N1CCN(Cc2ccccc2)CC1CO (stereo unspecified)	148 to 150
CC(O)c1nnc2n1-c1sc(Cl)cc1C(c1ccccc1Cl)=NC2 (stereo unspecified)	118 to 120
COc1ccc(CCN2CCC(N3Cc4cc(Cl)c(S(N)(=O)=O)cc4C3=O)CC2)cc1	125 to 135
COc1ccc(CCNS(=O)(=O)Cc2ccc3[nH]cc(CCN)c3c2)cc1	128 to 129
CCCOc1cc2c(cc1OC)C(c1ccc(OC)c(OC)c1)=NN=C(C)C2CC (stereo unspecified)	110 to 112
Cc1cc2[nH]cc(CSCCN3CC=C(c4ccccc4)CC3)c2cc1C	123 to 124

Source: a melting point compilation (Tetko et al.; mined from patent text by program, amines drawn as free bases though some values may be those of a salt)
